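Each compound was tested at five concentrations against cells in 96-well plates for 48 hours. TGI is the concentration that stops growth completely.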
Tests used:
Test in all cases: NCI-60 cell line screen, 48 h
LXFL 529 NSCLC = tested on: LXFL 529 NSCLC
UACC-257 melanoma = tested on: UACC-257 melanoma
SK-MEL-28 melanoma = tested on: SK-MEL-28 melanoma
UACC-62 melanoma = tested on: UACC-62 melanoma
DMS 273 small cell lung = tested on: DMS 273 small cell lung
SNB-78 CNS = tested on: SNB-78 CNS
HT29 colon = tested on: HT29 colon
A549 NSCLC = tested on: A549 NSCLC
HCT-15 colon = tested on: HCT-15 colon
HCC-2998 colon = tested on: HCC-2998 colon
TK-10 renal = tested on: TK-10 renal
SN12C renal = tested on: SN12C renal
SK-MEL-2 melanoma = tested on: SK-MEL-2 melanoma
SK-MEL-5 melanoma = tested on: SK-MEL-5 melanoma
MOLT-4 leukemia = tested on: MOLT-4 leukemia
UO-31 renal = tested on: UO-31 renal
OVCAR-8 ovarian = tested on: OVCAR-8 ovarian
MALME-3M melanoma = tested on: MALME-3M melanoma
NCI-H226 lung = tested on: NCI-H226 lung
SF-295 CNS = tested on: SF-295 CNS
M14 melanoma = tested on: M14 melanoma
HL-60(TB) leukemia = tested on: HL-60(TB) leukemia
NCI-H522 lung = tested on: NCI-H522 lung
NCI-H460 lung = tested on: NCI-H460 lung
OVCAR-4 ovarian = tested on: OVCAR-4 ovarian
KM12 colon = tested on: KM12 colon
K-562 leukemia = tested on: K-562 leukemia
LOX IMVI melanoma = tested on: LOX IMVI melanoma
RXF 393 renal = tested on: RXF 393 renal
OVCAR-3 ovarian = tested on: OVCAR-3 ovarian
M19-MEL melanoma = tested on: M19-MEL melanoma
NCI-H23 lung = tested on: NCI-H23 lung
SNB-19 CNS = tested on: SNB-19 CNS
SK-OV-3 ovarian = tested on: SK-OV-3 ovarian
IGROV1 ovarian = tested on: IGROV1 ovarian
XF 498 CNS = tested on: XF 498 CNS
HOP-18 NSCLC = tested on: HOP-18 NSCLC
SF-539 CNS = tested on: SF-539 CNS
ACHN renal = tested on: ACHN renal
U251 CNS = tested on: U251 CNS
HCT-116 colon = tested on: HCT-116 colon
SNB-75 CNS = tested on: SNB-75 CNS
SF-268 CNS = tested on: SF-268 CNS
CCRF-CEM leukemia = tested on: CCRF-CEM leukemia
HOP-62 NSCLC = tested on: HOP-62 NSCLC
DMS 114 small cell lung = tested on: DMS 114 small cell lung
HOP-92 NSCLC = tested on: HOP-92 NSCLC
RPMI-8226 leukemia = tested on: RPMI-8226 leukemia
DLD-1 colon = tested on: DLD-1 colon
COLO 205 colon = tested on: COLO 205 colon
EKVX NSCLC = tested on: EKVX NSCLC
SW-620 colon = tested on: SW-620 colon
A498 renal = tested on: A498 renal
KM20L2 colon = tested on: KM20L2 colon
OVCAR-5 ovarian = tested on: OVCAR-5 ovarian
786-0 renal = tested on: 786-0 renal
CAKI-1 renal = tested on: CAKI-1 renal
SR leukemia = tested on: SR leukemia

## O=c1c2ccccc2[nH]c2cc(O)cc(O)c12
LXFL 529 NSCLC
  TGI: > 100 µM
UACC-257 melanoma
  TGI: > 100 µM
SK-MEL-28 melanoma
  TGI: > 100 µM
UACC-62 melanoma
  TGI: > 100 µM
DMS 273 small cell lung
  TGI: > 100 µM
SNB-78 CNS
  TGI: > 100 µM
HT29 colon
  TGI: > 100 µM
A549 NSCLC
  TGI: > 100 µM
HCT-15 colon
  TGI: > 100 µM
HCC-2998 colon
  TGI: > 100 µM
TK-10 renal
  TGI: > 100 µM
SN12C renal
  TGI: > 100 µM
SK-MEL-2 melanoma
  TGI: > 100 µM
SK-MEL-5 melanoma
  TGI: 85 µM
MOLT-4 leukemia
  TGI: > 100 µM
UO-31 renal
  TGI: > 100 µM
OVCAR-8 ovarian
  TGI: > 100 µM
MALME-3M melanoma
  TGI: > 100 µM
NCI-H226 lung
  TGI: > 100 µM
SF-295 CNS
  TGI: > 100 µM
M14 melanoma
  TGI: > 100 µM
HL-60(TB) leukemia
  TGI: > 100 µM
NCI-H522 lung
  TGI: 86.3 µM
NCI-H460 lung
  TGI: > 100 µM
OVCAR-4 ovarian
  TGI: > 100 µM
KM12 colon
  TGI: > 100 µM
K-562 leukemia
  TGI: > 100 µM
LOX IMVI melanoma
  TGI: > 100 µM
RXF 393 renal
  TGI: > 100 µM
OVCAR-3 ovarian
  TGI: > 100 µM
M19-MEL melanoma
  TGI: > 100 µM
NCI-H23 lung
  TGI: > 100 µM
SNB-19 CNS
  TGI: > 100 µM
SK-OV-3 ovarian
  TGI: > 100 µM
IGROV1 ovarian
  TGI: > 100 µM
XF 498 CNS
  TGI: > 100 µM
HOP-18 NSCLC
  TGI: > 100 µM
SF-539 CNS
  TGI: > 100 µM
ACHN renal
  TGI: > 100 µM
U251 CNS
  TGI: > 100 µM
HCT-116 colon
  TGI: > 100 µM
SNB-75 CNS
  TGI: > 100 µM
SF-268 CNS
  TGI: > 100 µM
CCRF-CEM leukemia
  TGI: > 100 µM

## C=CCn1cc(C(=O)NC(=O)NCCCCCOC(=O)CCCCCCCCCCC(=O)OCCCCCNC(=O)NC(=O)c2cn(CC=C)c(=O)n(C)c2=O)c(=O)n(C)c1=O
LXFL 529 NSCLC
  TGI: > 100 µM
HOP-62 NSCLC
  TGI: > 100 µM
UACC-257 melanoma
  TGI: > 100 µM
SK-MEL-28 melanoma
  TGI: > 100 µM
UACC-62 melanoma
  TGI: > 100 µM
DMS 114 small cell lung
  TGI: > 100 µM
HOP-92 NSCLC
  TGI: > 100 µM
DMS 273 small cell lung
  TGI: > 100 µM
SNB-78 CNS
  TGI: > 100 µM
HT29 colon
  TGI: > 100 µM
RPMI-8226 leukemia
  TGI: > 100 µM
A549 NSCLC
  TGI: > 100 µM
HCT-15 colon
  TGI: > 100 µM
HCC-2998 colon
  TGI: > 100 µM
DLD-1 colon
  TGI: > 100 µM
TK-10 renal
  TGI: > 100 µM
SN12C renal
  TGI: > 100 µM
SK-MEL-2 melanoma
  TGI: > 100 µM
SK-MEL-5 melanoma
  TGI: > 100 µM
MOLT-4 leukemia
  TGI: > 100 µM
COLO 205 colon
  TGI: > 100 µM
EKVX NSCLC
  TGI: > 100 µM
UO-31 renal
  TGI: > 100 µM
OVCAR-8 ovarian
  TGI: > 100 µM
SW-620 colon
  TGI: > 100 µM
MALME-3M melanoma
  TGI: > 100 µM
A498 renal
  TGI: > 100 µM
NCI-H226 lung
  TGI: > 100 µM
M14 melanoma
  TGI: > 100 µM
HL-60(TB) leukemia
  TGI: > 100 µM
NCI-H522 lung
  TGI: > 100 µM
NCI-H460 lung
  TGI: > 100 µM
KM12 colon
  TGI: > 100 µM
K-562 leukemia
  TGI: > 100 µM
KM20L2 colon
  TGI: > 100 µM
LOX IMVI melanoma
  TGI: > 100 µM
RXF 393 renal
  TGI: > 100 µM
OVCAR-3 ovarian
  TGI: > 100 µM
OVCAR-5 ovarian
  TGI: > 100 µM
M19-MEL melanoma
  TGI: > 100 µM
NCI-H23 lung
  TGI: > 100 µM
SNB-19 CNS
  TGI: > 100 µM
SK-OV-3 ovarian
  TGI: > 100 µM
IGROV1 ovarian
  TGI: > 100 µM
786-0 renal
  TGI: > 100 µM
XF 498 CNS
  TGI: > 100 µM
HOP-18 NSCLC
  TGI: > 100 µM
SF-539 CNS
  TGI: > 100 µM
ACHN renal
  TGI: > 100 µM
U251 CNS
  TGI: > 100 µM
CAKI-1 renal
  TGI: > 100 µM
HCT-116 colon
  TGI: > 100 µM
SNB-75 CNS
  TGI: > 100 µM
SF-268 CNS
  TGI: > 100 µM
CCRF-CEM leukemia
  TGI: > 100 µM

## CS(=O)(=O)OCCCOS(C)(=O)=O
LXFL 529 NSCLC
  TGI: > 100 µM
HOP-62 NSCLC
  TGI: > 100 µM
UACC-257 melanoma
  TGI: > 100 µM
SK-MEL-28 melanoma
  TGI: > 100 µM
UACC-62 melanoma
  TGI: > 100 µM
DMS 114 small cell lung
  TGI: > 100 µM
SR leukemia
  TGI: > 100 µM
HOP-92 NSCLC
  TGI: > 100 µM
DMS 273 small cell lung
  TGI: > 100 µM
SNB-78 CNS
  TGI: > 100 µM
HT29 colon
  TGI: > 100 µM
RPMI-8226 leukemia
  TGI: > 100 µM
A549 NSCLC
  TGI: > 100 µM
HCT-15 colon
  TGI: > 100 µM
HCC-2998 colon
  TGI: > 100 µM
DLD-1 colon
  TGI: > 100 µM
TK-10 renal
  TGI: > 100 µM
SN12C renal
  TGI: > 100 µM
SK-MEL-2 melanoma
  TGI: > 100 µM
SK-MEL-5 melanoma
  TGI: > 100 µM
MOLT-4 leukemia
  TGI: > 100 µM
COLO 205 colon
  TGI: > 100 µM
EKVX NSCLC
  TGI: > 100 µM
UO-31 renal
  TGI: > 100 µM
OVCAR-8 ovarian
  TGI: > 100 µM
SW-620 colon
  TGI: > 100 µM
MALME-3M melanoma
  TGI: > 100 µM
A498 renal
  TGI: > 100 µM
NCI-H226 lung
  TGI: > 100 µM
SF-295 CNS
  TGI: > 100 µM
M14 melanoma
  TGI: > 100 µM
HL-60(TB) leukemia
  TGI: > 100 µM
NCI-H522 lung
  TGI: > 100 µM
NCI-H460 lung
  TGI: > 100 µM
OVCAR-4 ovarian
  TGI: > 100 µM
KM12 colon
  TGI: > 100 µM
K-562 leukemia
  TGI: > 100 µM
KM20L2 colon
  TGI: > 100 µM
LOX IMVI melanoma
  TGI: > 100 µM
RXF 393 renal
  TGI: > 100 µM
OVCAR-3 ovarian
  TGI: > 100 µM
OVCAR-5 ovarian
  TGI: > 100 µM
M19-MEL melanoma
  TGI: > 100 µM
NCI-H23 lung
  TGI: > 100 µM
SNB-19 CNS
  TGI: > 100 µM
SK-OV-3 ovarian
  TGI: > 100 µM
IGROV1 ovarian
  TGI: > 100 µM
786-0 renal
  TGI: > 100 µM
XF 498 CNS
  TGI: > 100 µM
HOP-18 NSCLC
  TGI: > 100 µM
SF-539 CNS
  TGI: > 100 µM
ACHN renal
  TGI: > 100 µM
U251 CNS
  TGI: > 100 µM
HCT-116 colon
  TGI: > 100 µM
SNB-75 CNS
  TGI: > 100 µM
SF-268 CNS
  TGI: > 100 µM
CCRF-CEM leukemia
  TGI: > 100 µM

## Oc1ccccc1-c1n[nH]c(=S)n1/N=C/c1ccc(-c2ccc(Br)cc2)o1
LXFL 529 NSCLC
  TGI: 71.4 µM
HOP-62 NSCLC
  TGI: > 100 µM
UACC-257 melanoma
  TGI: 59.6 µM
SK-MEL-28 melanoma
  TGI: > 100 µM
UACC-62 melanoma
  TGI: 40.3 µM
HOP-92 NSCLC
  TGI: 47.8 µM
SNB-78 CNS
  TGI: 75.2 µM
HT29 colon
  TGI: > 100 µM
A549 NSCLC
  TGI: > 100 µM
DLD-1 colon
  TGI: > 100 µM
TK-10 renal
  TGI: 51.1 µM
MOLT-4 leukemia
  TGI: > 100 µM
COLO 205 colon
  TGI: > 100 µM
UO-31 renal
  TGI: 66.2 µM
OVCAR-8 ovarian
  TGI: 90.1 µM
SW-620 colon
  TGI: > 100 µM
NCI-H226 lung
  TGI: 52.2 µM
SF-295 CNS
  TGI: > 100 µM
M14 melanoma
  TGI: > 100 µM
NCI-H522 lung
  TGI: > 100 µM
NCI-H460 lung
  TGI: > 100 µM
OVCAR-4 ovarian
  TGI: 50.5 µM
KM12 colon
  TGI: > 100 µM
K-562 leukemia
  TGI: > 100 µM
KM20L2 colon
  TGI: > 100 µM
LOX IMVI melanoma
  TGI: 56.7 µM
OVCAR-3 ovarian
  TGI: 80.5 µM
OVCAR-5 ovarian
  TGI: > 100 µM
M19-MEL melanoma
  TGI: > 100 µM
NCI-H23 lung
  TGI: 43.1 µM
SNB-19 CNS
  TGI: 56.1 µM
SK-OV-3 ovarian
  TGI: 95.1 µM
IGROV1 ovarian
  TGI: 92.6 µM
786-0 renal
  TGI: > 100 µM
SF-539 CNS
  TGI: > 100 µM
ACHN renal
  TGI: 92 µM
U251 CNS
  TGI: 56.5 µM
HCT-116 colon
  TGI: > 100 µM
SNB-75 CNS
  TGI: > 100 µM
SF-268 CNS
  TGI: > 100 µM

Reference: PubChem BioAssay (NCI)
